Experimental data published in the NIST ThermoML archive (doi:10.1016/j.jct.2009.01.014).

Conditions: for molar entropy: 101.33 kPa, Crystal 1, Vacuum adiabatic calorimetry

[Al+3].[Al+3].[Co+2].[O-2].[O-2].[O-2].[O-2] [aluminium cobalt oxide]
Conditions	Triple point temperature [K]	molar entropy [J/K/mol]
15 K	–	2.91
20 K	–	4.1
25 K	–	5.02
30 K	–	5.79
35 K	–	6.5
40 K	–	7.21
45 K	–	7.95
50 K	–	8.75
55 K	–	9.61
60 K	–	10.56
65 K	–	11.58
70 K	–	12.68
75 K	–	13.85
80 K	–	15.1
85 K	–	16.42
90 K	–	17.81
95 K	–	19.26
100 K	–	20.77
105 K	–	22.33
110 K	–	23.96
120 K	–	27.36
130 K	–	30.94
140 K	–	34.68
150 K	–	38.55
160 K	–	42.52
170 K	–	46.6
180 K	–	50.73
190 K	–	54.92
200 K	–	59.14
210 K	–	63.39
220 K	–	67.65
230 K	–	71.9
240 K	–	76.15
250 K	–	80.37
260 K	–	84.57
270 K	–	88.74
280 K	–	92.88
290 K	–	97
298.15 K	–	100.31
300 K	–	101.06
310 K	–	105.07
320 K	–	109.05
330 K	–	112.99
340 K	–	116.88
350 K	–	120.72
360 K	–	124.52
370 K	–	128.28
380 K	–	131.99
390 K	–	135.65
Crystal 2, Adiabatic calorimetry	9	–
